Data reported in the supplement of paper PMC10307832.

Tests used:
Assay in all cases: relative viability (nuclei count vs DMSO), 5 days (fraction); higher = more cells survive
Nelarabine + Palbociclib = compound: COc1nc(N)nc2c1ncn2[C@@H]1O[C@H](CO)[C@@H](O)[C@@H]1O [Nelarabine] + CC(=O)c1c(C)c2cnc(Nc3ccc(N4CCNCC4)cn3)nc2n(C2CCCC2)c1=O [Palbociclib] (partner 0.5 µM)
In short: (§1)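 Each reported value is a median over duplicate plates. It expresses relative viability: treated-well nuclei count divided by vehicle-well nuclei count. Lung cancer cell lines in 1536-well plates were dosed by pin tool a day after seeding, alone with one drug or with a fixed anchor-drug dose plus five library-drug doses (not always all listed) in √10 steps, and nuclei were counted after 5 days.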

Nelarabine + Decitabine = compound: COc1nc(N)nc2c1ncn2[C@@H]1O[C@H](CO)[C@@H](O)[C@@H]1O [Nelarabine] + Nc1ncn([C@H]2C[C@H](O)[C@@H](CO)O2)c(=O)n1 [Decitabine] (partner 2 µM)
In short: as §1

Adavosertib + Crizotinib = compound: C=CCn1c(=O)c2cnc(Nc3ccc(N4CCN(C)CC4)cc3)nc2n1-c1cccc(C(C)(C)O)n1 [Adavosertib] + C[C@@H](Oc1cc(-c2cnn(C3CCNCC3)c2)cnc1N)c1c(Cl)ccc(F)c1Cl [Crizotinib] (partner 1 µM)
In short: as §1

Adavosertib + Linsitinib = compound: C=CCn1c(=O)c2cnc(Nc3ccc(N4CCN(C)CC4)cc3)nc2n1-c1cccc(C(C)(C)O)n1 [Adavosertib] + C[C@]1(O)C[C@@H](c2nc(-c3ccc4ccc(-c5ccccc5)nc4c3)c3c(N)nccn32)C1 [Linsitinib] (partner 1 µM)
In short: as §1

Cell Line	relative viability (Nelarabine + Palbociclib; first compound 0.01 µM)	relative viability (Nelarabine + Palbociclib; first compound 0.03162 µM)	relative viability (Nelarabine + Palbociclib; first compound 0.1 µM)	relative viability (Nelarabine + Palbociclib; first compound 0.3162 µM)	relative viability (Nelarabine + Palbociclib; first compound 1 µM)	relative viability (Nelarabine + Decitabine; first compound 0.01 µM)	relative viability (Nelarabine + Decitabine; first compound 0.03162 µM)	relative viability (Nelarabine + Decitabine; first compound 0.1 µM)	relative viability (Nelarabine + Decitabine; first compound 0.3162 µM)	relative viability (Nelarabine + Decitabine; first compound 1 µM)	relative viability (Adavosertib + Crizotinib; first compound 0.01 µM)	relative viability (Adavosertib + Crizotinib; first compound 0.03162 µM)	relative viability (Adavosertib + Crizotinib; first compound 0.1 µM)	relative viability (Adavosertib + Crizotinib; first compound 0.3162 µM)	relative viability (Adavosertib + Linsitinib; first compound 0.01 µM)	relative viability (Adavosertib + Linsitinib; first compound 0.03162 µM)	relative viability (Adavosertib + Linsitinib; first compound 0.1 µM)	relative viability (Adavosertib + Linsitinib; first compound 0.3162 µM)
NCI-H2342	0.557	0.463	0.529	0.521	0.554	0.758	0.759	0.703	0.775	0.734								
NCI-H1648		0.27		0.292	0.215		0.533		0.616	0.441								
ChaGo-K-1	0.939	0.815	0.964	0.989	0.876	0.559	0.532	0.52	0.539	0.539	1.05	1.05	1.21	1.12				
NCI-H1563											0.837	0.942	0.936	0.924	1.17	1.24	1.18	1.2
NCI-H1650	0.255	0.317	0.337	0.32	0.266	0.392	0.447	0.484	0.478	0.333	0.931	1.02	1.04	1.17				
A549						0.293	0.282	0.271	0.287	0.23	0.733	0.807	0.891	0.702	0.654	0.553	0.634	0.52
NCI-H522	1.16	1.07	0.957	0.947	1.02	0.724	0.763	0.608	0.684	0.558								
NCI-H2170	0.438	0.337	0.385	0.395	0.405	0.473	0.546	0.484	0.47	0.427	1.23	1.17	1.19	1.35				
NCI-H1703											0.853	0.712	0.978	0.103	1.05	0.822	1.01	0.414
NCI-H2228	1.04	0.538	0.599	0.937	0.792						0.391	0.458	0.615	0.3	0.629	0.623	0.76	0.395
NCI-H1299											0.929	0.936	0.96	0.49	0.963	0.985	0.996	0.95
NCI-H596						1.09	0.972	1.06	1.09	1.13	1.04	1.07	1.11	1.03	1.04	1.01	1.01	1.11
